Each structure is given as a SMILES string. pEC50: −log10 of the molar value.

In the first experiment the test system is HBV. As to the kind of experiment: HBV inhibition assay in HepAD38 cells (extracellular HBV DNA by direct qPCR). To be noted: 0.1 μM, 96 hours, relative to non-treated reference. It is filed as cell-based, Hepatitis B virus. A general note: Quantitative PCR measures a nucleic acid by following its amplification.
In the case of `CCOC(=O)N1CC2COc3c(cn(C)c3C(=O)Nc3ccc(F)c(C#N)c3)S(=O)(=O)NC2C1` (single isomer, unassigned) [Example E46, Ethyl 8-((3-cyano-4-fluorophenyl)carbamoyl)-7-methyl-3a,4,10,10a-tetrahydro-1H,7H-dipyrrolo[3,4-b:3′,4′-f][1,4,5]oxathiazocine-2(3H)-carboxylate 5,5-dioxide (Chiral 3aS,10aS or 3aR,10aR - Stereochemistry unknown)], the “Anti HBV Activity (conc μM)” value is “B (0.1) (HBV inhibition less than 50% at the concentration indicated in the table)”.

Still in this experiment, the particulars now being: 96 hours, 8-point dose-response curve, read-out: HBV inh EC50.
Turning to `CCOC(=O)N1CC2NS(=O)(=O)c3cn(C)c(C(=O)Nc4cc(F)c(F)c(F)c4)c3OCC2(C)C1` (single isomer, unassigned) [Example E91, Ethyl 7,10a-dimethyl-8-((3,4,5-trifluorophenyl)carbamoyl)-3a,4,10,10a-tetrahydro-1H,7H-dipyrrolo[3,4-b:3′,4′-f][1,4,5]oxathiazocine-2(3H)-carboxylate 5,5-dioxide (Chiral 3aS,10aS or 3aR,10aR - Stereochemistry unknown)], the pEC50 (as a rule, −log10 of the EC50, conventionally taken in molar units) is more than 6.00.

In the case of `CCOC(=O)N1CC2NS(=O)(=O)c3cn(C)c(C(=O)Nc4cc(F)c(F)c(F)c4)c3OCC2(C)C1` (single isomer, unassigned) [Example E92, Ethyl 7,10a-dimethyl-8-((3,4,5-trifluorophenyl)carbamoyl)-3a,4,10,10a-tetrahydro-1H,7H-dipyrrolo[3,4-b:3′,4′-f][1,4,5]oxathiazocine-2(3H)-carboxylate 5,5-dioxide (Chiral 3aS,10aS or 3aR,10aR - Stereochemistry unknown)], the pEC50 was more than 6.00.

Turning to `CCOC(=O)N1CC2NS(=O)(=O)c3cn(C)c(C(=O)Nc4ccc(F)c(C)c4)c3OCC2(C)C1` (single isomer, unassigned) [Example E93, Ethyl 8-((4-fluoro-3-methylphenyl)carbamoyl)-7,10a-dimethyl-3a,4,10,10a-tetrahydro-1H,7H-dipyrrolo[3,4-b:3′,4′-f][1,4,5]oxathiazocine-2(3H)-carboxylate 5,5-dioxide (Chiral 3aS,10aS or 3aR,10aR - Stereochemistry unknown)], the negative-log EC50 (pEC50) is more than 6.00.

Consider `CCOC(=O)N1CC2NS(=O)(=O)c3cn(C)c(C(=O)Nc4ccc(F)c(C)c4)c3OCC2(C)C1` (single isomer, unassigned) [Example E94, Ethyl 8-((4-fluoro-3-methylphenyl)carbamoyl)-7,10a-dimethyl-3a,4,10,10a-tetrahydro-1H,7H-dipyrrolo[3,4-b:3′,4′-f][1,4,5]oxathiazocine-2(3H)-carboxylate 5,5-dioxide(Chiral 3aS,10aS or 3aR,10aR - Stereochemistryunknown)], for which the pEC50 is more than 6.00.

Consider `Cc1nnc(C(=O)N2CC3NS(=O)(=O)c4cn(C)c(C(=O)Nc5ccc(F)c(C)c5)c4OCC3(C)C2)o1` (single isomer, unassigned) [Example E95, N-(4-fluoro-3-methylphenyl)-7,10a-dimethyl-2-(5-methyl-1,3,4-oxadiazole-2-carbonyl)-2,3,3a,4,10,10a-hexahydro-1H,7H-dipyrrolo[3,4-b:3′,4′-f][1,4,5]oxathiazocine-8-carboxamide 5,5-dioxide (Chiral 3aS,10aS or 3aR,10aR - Stereochemistry unknown)], for which the pEC50 was more than 6.00.

With `Cc1nnc(C(=O)N2CC3NS(=O)(=O)c4cn(C)c(C(=O)Nc5ccc(F)c(C)c5)c4OCC3(C)C2)o1` (single isomer, unassigned) [Example E96, N-(4-fluoro-3-methylphenyl)-7,10a-dimethyl-2-(5-methyl-1,3,4-oxadiazole-2-carbonyl)-2,3,3a,4,10,10a-hexahydro-1H,7H-dipyrrolo[3,4-b:3′,4′-f][1,4,5]oxathiazocine-8-carboxamide 5,5-dioxide (Chiral 3aS,10aS or 3aR,10aR - Stereochemistry unknown)], the pEC50 is more than 6.00.

The same experiment, now with this note: Hepatitis B virus, 0.05 μM, 96 hours, relative to non-treated reference, read-out: Anti HBV Activity (conc μM).
`Cc1cc(NC(=O)c2c3c(cn2C)S(=O)(=O)NC2CNCC2CO3)ccc1F` (stereo not drawn) [Example E47, cis-N-(4-fluoro-3-methylphenyl)-7-methyl-2,3,3a,4,10,10a-hexahydro-1H,7H-dipyrrolo[3,4-b:3′,4′-f][1,4,5]oxathiazocine-8-carboxamide 5,5-dioxide hydroiodide]: the inhibition at 0.05 µM is more than 50%.

As to `Cc1nnc(C(=O)N2CC3COc4c(cn(C)c4C(=O)Nc4cc(F)c(F)c(F)c4)S(=O)(=O)NC3C2)o1` (stereo not drawn) [Example E51, cis-7-methyl-2-(5-methyl-1,3,4-oxadiazole-2-carbonyl)-N-(3,4,5-trifluorophenyl)-2,3,3a,4,10,10a-hexahydro-1H,7H-dipyrrolo[3,4-b:3′,4′-f][1,4,5]oxathiazocine-8-carboxamide 5,5-dioxide], the inhibition at 0.05 µM was more than 50%.

Still in this experiment, the particulars now being: Hepatitis B virus, 0.1 μM, 96 hours, relative to non-treated reference, read-out: Anti HBV Activity (conc μM).
For the compound `CCOC(=O)N1CC[C@H]2NS(=O)(=O)c3cn(C)c(C(=O)Nc4ccc(F)c(F)c4)c3OC[C@H]21` [Example E27, Ethyl (3aR,10aS)-8-((3,4-difluorophenyl)carbamoyl)-7-methyl-2,3,3a,4,10,10a-hexahydro-1H,7H-dipyrrolo[3,4-b:3′,2′-f][1,4,5]oxathiazocine-1-carboxylate 5,5-dioxide], the inhibition at 0.1 µM was less than 50%.

Take `Cn1cc2c(c1C(=O)Nc1ccc(F)c(F)c1)OCC1(C)CCCC1NS2(=O)=O` (stereo not shown) [Example E29, N-(3,4-difluorophenyl)-2,8a-dimethyl-5a,6,7,8,8a,9-hexahydro-2H,5H-cyclopenta[f]pyrrolo[3,4-b][1,4,5]oxathiazocine-1-carboxamide 4,4-dioxide]: the inhibition at 0.1 µM is less than 50%.

For `Cn1cc2c(c1C(=O)Nc1cc(F)c(F)c(F)c1)OC[C@@H]1CNC[C@@H]1NS2(=O)=O` [Example E36, 7-methyl-N-(3,4,5-trifluorophenyl)-2,3,3a,4,10,10a-hexahydro-1H,7H-dipyrrolo[3,4-b:3′,4′-f][1,4,5]oxathiazocine-8-carboxamide 5,5-dioxide (3aR,10aR)], the inhibition at 0.1 µM was less than 50%.

Still in this experiment, the particulars now being: Hepatitis B virus, 1 μM, 96 hours, relative to non-treated reference, read-out: Anti HBV Activity (conc μM).
As to `Cn1cc2c(c1C(=O)Nc1ccc(F)c(F)c1)OCC1CCCCN1S2(=O)=O` (stereo not shown) [Example E1, N-(3,4-difluorophenyl)-2-methyl-6,7,8,9,9a,10-hexahydro-2H-pyrido[1,2-e]pyrrolo[3,4-b][1,4,5]oxathiazepine-1-carboxamide 4,4-dioxide], the inhibition at 1 µM was less than 50%.

Turning to `Cn1cc2c(c1C(=O)Nc1ccc(F)c(F)c1)NCC1CCCCN1S2(=O)=O` (stereo not shown) [Example E2, N-(3,4-difluorophenyl)-2-methyl-2,6,7,8,9,9a,10,11-octahydropyrido[1,2-b]pyrrolo[3,4-f][1,2,5]thiadiazepine-1-carboxamide 4,4-dioxide], the inhibition at 1 µM is less than 50%.

Turning to `Cn1cc2c(c1C(=O)Nc1ccc(F)c(F)c1)OCC1CCN1S2(=O)=O` (stereo not shown) [Example E3, N-(3,4-difluorophenyl)-2-methyl-6,7,7a,8-tetrahydro-2H-azeto[1,2-e]pyrrolo[3,4-b][1,4,5]oxathiazepine-1-carboxamide 4,4-dioxide], the inhibition at 1 µM is more than 50%.

For the compound `Cn1cc2c(c1C(=O)Nc1ccc(F)c(F)c1)OC[C@H]1C[C@H](C1)NS2(=O)=O` [Example E5], the inhibition at 1 µM is less than 50%.

The experiment is the same for the next values; noted with them: Hepatitis B virus, 96 hours, 8-point dose-response curve, read-out: HBV inh EC50.
As to `Cc1cc(NC(=O)c2c3c(cn2C)S(=O)(=O)N[C@@H]2CN(C(=O)OC(C)(C)C)C[C@H]2CO3)ccc1F` (single isomer, unassigned) [Example E151], the pEC50 is more than 6.00.

Take `Cc1cc(NC(=O)c2c3c(cn2C)S(=O)(=O)N[C@H]2CN(C(=O)OC(C)(C)C)C[C@@H]2CO3)ccc1F` (single isomer, unassigned) [Example E152]: the pEC50 is more than 6.00.

Consider `Cc1nnc(C(=O)N2C[C@H]3COc4c(cn(C)c4C(=O)Nc4ccc(F)c(C)c4)S(=O)(=O)N[C@@H]3C2)o1` (single isomer, unassigned) [Example E153], for which the pEC50 was more than 6.00.

For the compound `Cc1nnc(C(=O)N2C[C@@H]3COc4c(cn(C)c4C(=O)Nc4ccc(F)c(C)c4)S(=O)(=O)N[C@H]3C2)o1` (single isomer, unassigned) [Example E154], the pEC50 is more than 6.00.

As to `Cn1cc2c(c1C(=O)Nc1ccc(F)c(F)c1)OCC1CCCCN1S2(=O)=O` (stereo not shown) [Example E1, N-(3,4-difluorophenyl)-2-methyl-6,7,8,9,9a,10-hexahydro-2H-pyrido[1,2-e]pyrrolo[3,4-b][1,4,5]oxathiazepine-1-carboxamide 4,4-dioxide], the negative logarithm of the EC50 (pEC50) is less than 6.00.

Take `Cn1cc2c(c1C(=O)Nc1ccc(F)c(F)c1)OCC1CCN1S2(=O)=O` (stereo not shown) [Example E3, N-(3,4-difluorophenyl)-2-methyl-6,7,7a,8-tetrahydro-2H-azeto[1,2-e]pyrrolo[3,4-b][1,4,5]oxathiazepine-1-carboxamide 4,4-dioxide]: the pEC50 was more than 6.00.

`Cn1cc2c(c1C(=O)Nc1ccc(F)c(F)c1)OC[C@@H]1CCC[C@H]1NS2(=O)=O` [Example E8, (5aR,8aR)—N-(3,4-difluorophenyl)-2-methyl-5a,6,7,8,8a,9-hexahydro-2H,5H-cyclopenta[f]pyrrolo[3,4-b][1,4,5]oxathiazocine-1-carboxamide 4,4-dioxide]: the pEC50 is more than 6.00.

With `Cn1cc2c(c1C(=O)Nc1ccc(F)c(F)c1)OC[C@H]1CCC[C@@H]1NS2(=O)=O` [Example E9, (5aS,8aS)—N-(3,4-difluorophenyl)-2-methyl-5a,6,7,8,8a,9-hexahydro-2H,5H-cyclopenta[f]pyrrolo[3,4-b][1,4,5]oxathiazocine-1-carboxamide 4,4-dioxide], the pEC50 was more than 6.00.

As to `Cc1cc(NC(=O)c2c3c(cn2C)S(=O)(=O)NC2CNCC2CO3)ccc1F` (stereo not drawn) [Example E47, cis-N-(4-fluoro-3-methylphenyl)-7-methyl-2,3,3a,4,10,10a-hexahydro-1H,7H-dipyrrolo[3,4-b:3′,4′-f][1,4,5]oxathiazocine-8-carboxamide 5,5-dioxide hydroiodide], the pEC50 was more than 6.00.

Turning to `Cc1cc(NC(=O)c2c3c(cn2C)S(=O)(=O)NC2CN(c4cccnc4)CC2CO3)ccc1F` (stereo not drawn) [Example E48, cis-N-(4-fluoro-3-methylphenyl)-7-methyl-2-(pyridin-3-yl)-2,3,3a,4,10,10a-hexahydro-1H,7H-dipyrrolo[3,4-b:3′,4′-f][1,4,5]oxathiazocine-8-carboxamide 5,5-dioxide], the pEC50 was more than 6.00.

With `Cc1cc(NC(=O)c2c3c(cn2C)S(=O)(=O)NC2CN(c4nnco4)CC2CO3)ccc1F` (stereo not drawn) [Example E49, cis-N-(4-fluoro-3-methylphenyl)-7-methyl-2-(1,3,4-oxadiazol-2-yl)-2,3,3a,4,10,10a-hexahydro-1H,7H-dipyrrolo[3,4-b:3′,4′-f][1,4,5]oxathiazocine-8-carboxamide 5,5-dioxide], the pEC50 is more than 6.00.

For the compound `Cc1nnc(C(=O)N2CC3COc4c(cn(C)c4C(=O)Nc4cc(F)c(F)c(F)c4)S(=O)(=O)NC3C2)o1` (stereo not drawn) [Example E51, cis-7-methyl-2-(5-methyl-1,3,4-oxadiazole-2-carbonyl)-N-(3,4,5-trifluorophenyl)-2,3,3a,4,10,10a-hexahydro-1H,7H-dipyrrolo[3,4-b:3′,4′-f][1,4,5]oxathiazocine-8-carboxamide 5,5-dioxide], the negative-log EC50 (pEC50) is more than 6.00.

These data come from patent US11504382B2, “Tricyclic inhibitors of Hepatitis B virus” (Antios Therapeutics, Inc., priority 2018, dated 2022).
